US9375402B2, “Oral formulations of kinase inhibitors” (VERASTEM, INC., priority 2010, dated 2016)

Assay: Solubility of SR2516 and SR3406 in selected oils
Type: physicochemical
Conditions: shaken overnight at 25 deg C, filtrate, HPLC
Description: This purpose of this study was to select an oil system as the vehicle base for the self-emosifying formulation based on the solubility
Procedure • 1. Add 25 mg of each API in 2 mL eppendoff vial. Record weight. • 2. Weigh out each excipient. Record weight. • 3. Beadbeater 100 sec to mix well. If all dissolved, add additional 5-10 mg each time until excess solid is present. • 4. Use a platform shaker to shake all vials overnight at 25 deg C. • 5. Observe for clarity, presence and relative amount of precipitates. • 6. Filter using spin-X (0.22 um). • 7. Dilute the filtrate to normal concentration for HPLC analysis for drug concentration and purity %. • 8. Keep the filtrate at room temperature and observe for ppt at longer time point(s) if needed. Results Analysis on Filtrate Samples

Row | SMILES | Solubility (in Capmul MCM (F2)) [mg/g] | Solubility (in Castor oil (F4)) [mg/g] | Solubility (in Labrafil M 1944 CS (F3)) [mg/g] | Solubility (in Miglyol 812 (F1)) [mg/g] | Solubility (in Oleic acid (F5)) [mg/g]
1 | CNC(=O)c1cc(F)ccc1Nc1cc(Nc2ccc(N3CCOCC3)cc2OC)ncc1C(F)(F)F [SR-3406] | 13.6 | 4.9 | 1.0 | 0.3 | 0.4
2 | CNC(=O)c1ccccc1Nc1cc(Nc2ccc(N3CCOCC3)cc2OC)ncc1C(F)(F)F [SR-2516] | 8.4 | 1.5 | 2.2 | 0.3 | 5.8
